Experimental data reported in ChEMBL document CHEMBL1201862, “PubChem BioAssay data set” (2004).
The source made the active and inactive calls.

Key:
[1] = test system: Streptococcus sp. 'group A'; assay: Streptococcus pyogenes SK(-)GAS viability under kanamycin – luminescence, BacTiterGlo, confirmation, counter-screen for streptokinase expression inhibitor project, dose response (AID 1900); assay type: functional, organism-based
Streptokinase A = target: T1, Streptokinase A (Streptococcus pyogenes serotype M1, UniProt P10520); assay: viability-normalized secreted streptokinase activity reduction – plasminogen activation absorbance, OD405, dose response (AID 1914); assay type: functional, Streptococcus pyogenes M1 GAS;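 note: secreted streptokinase activity via plasminogen activation per viability signal from cell pellet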
T1 sequence (P10520 whole entry): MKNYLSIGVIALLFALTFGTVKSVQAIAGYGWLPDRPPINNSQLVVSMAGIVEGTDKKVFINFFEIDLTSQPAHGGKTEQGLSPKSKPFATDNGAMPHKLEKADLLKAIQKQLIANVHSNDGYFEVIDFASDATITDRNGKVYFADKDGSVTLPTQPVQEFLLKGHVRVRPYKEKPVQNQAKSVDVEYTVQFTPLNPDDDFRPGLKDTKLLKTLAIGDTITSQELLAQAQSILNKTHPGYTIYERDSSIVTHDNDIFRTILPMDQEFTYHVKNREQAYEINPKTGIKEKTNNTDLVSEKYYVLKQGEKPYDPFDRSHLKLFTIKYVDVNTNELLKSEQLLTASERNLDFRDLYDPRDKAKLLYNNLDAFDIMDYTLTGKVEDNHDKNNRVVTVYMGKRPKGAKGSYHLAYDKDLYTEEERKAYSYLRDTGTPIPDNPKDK

Troponin, cardiac muscle = Troponin, cardiac muscle (Homo sapiens, UniProt P19429+P45379+P63316); assay: Fluorescence-based biochemical high throughput dose response assay for activators of the calcium sensitivity of cardiac Regulated Thin Filaments (RTF). [Related pubchem assays (depositor defined):AID493008, AID493018, AID504382, AID504383]; assay type: protein-complex assay
Streptococcus = assay: GAS UMAA2166 growth inhibition – luminescence, BacTiterGlo, counter-screen for streptokinase expression inhibitor project, dose response (AID 1915); assay type: functional, organism-based;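 note: potency for reduction of bacterial viability or growth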
[2] = target: G-protein coupled receptor 55 (Homo sapiens, UniProt Q9Y2T6); assay: inhibition of LPI-stimulated GPR55 beta-arrestin translocation – imaging, U2OS, beta-arrestin-GFP, LPI agonist, primary screen (AID 2013); assay type: functional;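 note: antagonist potency measured as reduced agonist-driven arrestin aggregation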
G-protein coupled receptor 55, sequence (Q9Y2T6 whole entry): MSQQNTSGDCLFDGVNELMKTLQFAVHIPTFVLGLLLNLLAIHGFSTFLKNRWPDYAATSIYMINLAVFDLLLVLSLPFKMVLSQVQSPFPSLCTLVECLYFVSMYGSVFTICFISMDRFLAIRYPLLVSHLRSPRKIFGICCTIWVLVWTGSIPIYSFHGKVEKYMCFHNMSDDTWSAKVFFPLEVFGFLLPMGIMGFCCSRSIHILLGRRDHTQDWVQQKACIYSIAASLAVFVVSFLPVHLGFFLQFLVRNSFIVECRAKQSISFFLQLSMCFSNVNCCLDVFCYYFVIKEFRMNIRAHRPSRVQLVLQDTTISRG

[3] = target: T2, Voltage-gated N-type calcium channel alpha-1B subunit/Amyloid beta A4 precursor protein-binding family A member 1 (Homo sapiens, UniProt Q00975+Q02410); assay type: protein assay
T2 sequence (Q00975 whole entry): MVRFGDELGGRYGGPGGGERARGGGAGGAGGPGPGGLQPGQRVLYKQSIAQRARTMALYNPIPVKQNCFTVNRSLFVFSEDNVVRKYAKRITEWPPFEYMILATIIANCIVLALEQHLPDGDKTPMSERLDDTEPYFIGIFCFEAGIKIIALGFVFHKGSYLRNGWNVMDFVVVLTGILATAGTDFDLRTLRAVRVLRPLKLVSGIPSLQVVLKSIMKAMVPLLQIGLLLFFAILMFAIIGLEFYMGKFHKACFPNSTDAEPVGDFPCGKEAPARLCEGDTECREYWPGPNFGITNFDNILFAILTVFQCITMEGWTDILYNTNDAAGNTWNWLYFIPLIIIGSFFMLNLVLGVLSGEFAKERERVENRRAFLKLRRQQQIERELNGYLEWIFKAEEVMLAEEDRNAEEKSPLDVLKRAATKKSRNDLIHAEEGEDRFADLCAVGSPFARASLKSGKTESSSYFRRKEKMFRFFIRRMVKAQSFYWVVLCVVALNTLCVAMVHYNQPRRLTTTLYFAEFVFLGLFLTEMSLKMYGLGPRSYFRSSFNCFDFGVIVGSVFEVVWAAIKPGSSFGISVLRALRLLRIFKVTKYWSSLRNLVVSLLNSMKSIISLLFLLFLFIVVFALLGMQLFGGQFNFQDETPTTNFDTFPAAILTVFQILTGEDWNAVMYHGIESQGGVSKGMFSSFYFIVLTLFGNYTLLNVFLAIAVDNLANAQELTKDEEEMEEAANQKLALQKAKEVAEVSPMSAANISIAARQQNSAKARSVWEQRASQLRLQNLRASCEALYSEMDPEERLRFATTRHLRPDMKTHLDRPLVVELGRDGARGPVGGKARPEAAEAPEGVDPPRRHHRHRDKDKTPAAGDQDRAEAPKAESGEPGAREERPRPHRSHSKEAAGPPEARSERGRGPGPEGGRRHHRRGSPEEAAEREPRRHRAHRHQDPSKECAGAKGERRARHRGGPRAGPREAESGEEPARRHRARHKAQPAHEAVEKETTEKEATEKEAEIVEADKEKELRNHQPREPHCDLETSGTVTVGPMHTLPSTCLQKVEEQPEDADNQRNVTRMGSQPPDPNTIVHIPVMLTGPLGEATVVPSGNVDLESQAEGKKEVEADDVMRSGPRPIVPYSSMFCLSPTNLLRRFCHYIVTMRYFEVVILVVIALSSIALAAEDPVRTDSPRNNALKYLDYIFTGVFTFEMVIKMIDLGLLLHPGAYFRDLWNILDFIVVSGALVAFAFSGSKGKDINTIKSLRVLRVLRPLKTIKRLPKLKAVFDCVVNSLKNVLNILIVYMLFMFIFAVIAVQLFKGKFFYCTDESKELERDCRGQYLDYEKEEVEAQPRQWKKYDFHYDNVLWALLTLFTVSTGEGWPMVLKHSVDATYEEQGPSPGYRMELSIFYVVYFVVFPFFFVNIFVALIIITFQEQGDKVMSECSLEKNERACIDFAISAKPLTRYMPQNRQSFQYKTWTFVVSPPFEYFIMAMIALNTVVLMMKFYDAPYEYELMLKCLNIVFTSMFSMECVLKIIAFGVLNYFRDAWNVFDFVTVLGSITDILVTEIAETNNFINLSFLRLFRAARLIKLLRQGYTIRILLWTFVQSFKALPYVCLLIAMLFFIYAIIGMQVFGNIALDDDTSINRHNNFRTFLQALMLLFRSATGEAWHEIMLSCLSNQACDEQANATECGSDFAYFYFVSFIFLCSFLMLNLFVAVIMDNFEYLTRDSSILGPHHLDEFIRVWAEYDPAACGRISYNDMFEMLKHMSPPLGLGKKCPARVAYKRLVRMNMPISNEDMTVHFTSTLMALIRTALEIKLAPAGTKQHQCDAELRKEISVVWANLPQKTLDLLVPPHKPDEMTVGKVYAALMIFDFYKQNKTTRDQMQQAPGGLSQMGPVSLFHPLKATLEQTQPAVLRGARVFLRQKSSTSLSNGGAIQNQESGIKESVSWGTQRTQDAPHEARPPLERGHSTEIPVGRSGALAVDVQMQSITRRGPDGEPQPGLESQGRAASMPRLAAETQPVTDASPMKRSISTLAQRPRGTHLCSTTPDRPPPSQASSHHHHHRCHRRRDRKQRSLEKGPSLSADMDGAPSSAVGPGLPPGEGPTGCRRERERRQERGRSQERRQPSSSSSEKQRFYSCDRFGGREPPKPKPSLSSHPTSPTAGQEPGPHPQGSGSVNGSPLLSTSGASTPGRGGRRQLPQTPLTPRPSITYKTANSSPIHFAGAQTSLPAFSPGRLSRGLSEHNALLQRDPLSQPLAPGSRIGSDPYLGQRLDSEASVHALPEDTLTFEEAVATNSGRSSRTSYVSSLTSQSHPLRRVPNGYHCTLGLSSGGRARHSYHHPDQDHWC
T2 sequence (Q02410 whole entry): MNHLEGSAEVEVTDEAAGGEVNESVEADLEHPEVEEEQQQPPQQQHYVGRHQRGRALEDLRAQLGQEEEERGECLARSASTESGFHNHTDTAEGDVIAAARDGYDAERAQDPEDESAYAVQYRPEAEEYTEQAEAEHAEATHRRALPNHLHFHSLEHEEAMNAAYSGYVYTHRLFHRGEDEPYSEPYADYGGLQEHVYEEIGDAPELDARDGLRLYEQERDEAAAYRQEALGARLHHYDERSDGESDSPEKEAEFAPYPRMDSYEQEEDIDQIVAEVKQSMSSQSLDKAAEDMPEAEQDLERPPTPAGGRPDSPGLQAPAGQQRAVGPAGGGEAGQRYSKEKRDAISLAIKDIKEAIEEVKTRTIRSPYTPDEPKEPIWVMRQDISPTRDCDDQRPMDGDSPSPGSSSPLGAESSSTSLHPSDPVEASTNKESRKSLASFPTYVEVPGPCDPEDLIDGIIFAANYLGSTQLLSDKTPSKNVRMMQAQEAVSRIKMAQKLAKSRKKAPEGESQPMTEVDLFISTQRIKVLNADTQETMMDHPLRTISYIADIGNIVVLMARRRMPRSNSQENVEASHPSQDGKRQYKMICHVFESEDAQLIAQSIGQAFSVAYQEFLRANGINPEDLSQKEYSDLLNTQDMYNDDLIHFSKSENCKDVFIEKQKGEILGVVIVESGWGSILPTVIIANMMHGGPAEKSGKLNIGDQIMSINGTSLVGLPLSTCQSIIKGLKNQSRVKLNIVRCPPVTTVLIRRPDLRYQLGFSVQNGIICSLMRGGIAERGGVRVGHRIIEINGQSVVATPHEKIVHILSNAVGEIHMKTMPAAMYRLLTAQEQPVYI

[4] = target: T2, Voltage-gated N-type calcium channel alpha-1B subunit/Amyloid beta A4 precursor protein-binding family A member 1; assay type: protein assay; remark: listed apart in the source
[5] = target: T3, Long-chain-fatty-acid--AMP ligase FadD28 (Mycobacterium tuberculosis, UniProt P9WQ59); assay: Fluorescence polarization aasay to screen for inhibitors that compete for the binding of FadD28 to a bisubstrate Measured in Biochemical System Using Plate Reader - 2147-01_Inhibitor_Dose_CherryPick_Activity.; assay type: functional, Mycobacterium tuberculosis H37Rv
T3 sequence (P9WQ59 whole entry): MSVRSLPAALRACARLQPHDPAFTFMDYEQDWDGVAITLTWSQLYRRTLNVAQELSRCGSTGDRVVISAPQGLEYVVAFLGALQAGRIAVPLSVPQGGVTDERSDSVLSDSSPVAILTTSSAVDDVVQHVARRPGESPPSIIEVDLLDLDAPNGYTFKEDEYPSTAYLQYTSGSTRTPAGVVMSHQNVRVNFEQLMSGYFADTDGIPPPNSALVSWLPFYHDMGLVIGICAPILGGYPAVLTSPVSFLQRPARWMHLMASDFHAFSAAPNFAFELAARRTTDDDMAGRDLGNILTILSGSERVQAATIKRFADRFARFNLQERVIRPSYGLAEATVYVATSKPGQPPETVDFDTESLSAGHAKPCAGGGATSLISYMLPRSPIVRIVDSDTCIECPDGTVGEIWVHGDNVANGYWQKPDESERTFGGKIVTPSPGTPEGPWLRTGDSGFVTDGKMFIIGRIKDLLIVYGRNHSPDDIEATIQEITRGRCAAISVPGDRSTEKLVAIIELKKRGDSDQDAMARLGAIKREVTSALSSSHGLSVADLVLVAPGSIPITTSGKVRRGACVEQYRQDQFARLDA

[6] = target: FAD-linked sulfhydryl oxidase ALR (Homo sapiens, UniProt P55789); assay: ALR-catalysed DTT oxidation blockers – biochemical, H2O2 detection, luminescence, cherry-pick, dose response (AID 493248)
FAD-linked sulfhydryl oxidase ALR, sequence (P55789 whole entry, the tested form may be a part): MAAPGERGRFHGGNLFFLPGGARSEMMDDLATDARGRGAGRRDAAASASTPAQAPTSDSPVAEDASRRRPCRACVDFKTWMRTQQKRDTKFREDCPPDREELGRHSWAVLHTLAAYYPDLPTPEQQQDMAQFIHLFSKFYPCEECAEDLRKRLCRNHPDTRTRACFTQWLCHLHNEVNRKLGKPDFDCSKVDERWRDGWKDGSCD

[7] = CCR5-tropic HIV-1 fusion blockers – cell-based, CCR5-tropic Env, dose response (AID 2279); assay type: functional
[8] = target: T4, Corticotropin-releasing factor receptor 2/Corticotropin-releasing factor-binding protein (Homo sapiens, UniProt P24387+Q13324); assay: activators of CRF receptor 2 with binding protein – uHTS hits, confirmation (AID 602473); assay type: functional; settings: read-out: EC50_Mean
T4 sequence (Q13324 whole entry): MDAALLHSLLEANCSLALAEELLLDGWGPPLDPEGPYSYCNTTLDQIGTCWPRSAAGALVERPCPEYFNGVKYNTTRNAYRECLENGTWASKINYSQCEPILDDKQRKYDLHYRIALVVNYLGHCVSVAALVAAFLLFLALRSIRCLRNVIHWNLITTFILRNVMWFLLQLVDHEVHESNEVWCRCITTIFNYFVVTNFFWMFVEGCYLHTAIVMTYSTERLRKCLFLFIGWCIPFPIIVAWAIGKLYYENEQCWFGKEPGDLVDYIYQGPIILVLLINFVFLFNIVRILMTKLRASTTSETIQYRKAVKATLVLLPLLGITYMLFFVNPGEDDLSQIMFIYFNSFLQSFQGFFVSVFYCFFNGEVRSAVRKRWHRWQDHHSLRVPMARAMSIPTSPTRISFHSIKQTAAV
T4 sequence (P24387 whole entry): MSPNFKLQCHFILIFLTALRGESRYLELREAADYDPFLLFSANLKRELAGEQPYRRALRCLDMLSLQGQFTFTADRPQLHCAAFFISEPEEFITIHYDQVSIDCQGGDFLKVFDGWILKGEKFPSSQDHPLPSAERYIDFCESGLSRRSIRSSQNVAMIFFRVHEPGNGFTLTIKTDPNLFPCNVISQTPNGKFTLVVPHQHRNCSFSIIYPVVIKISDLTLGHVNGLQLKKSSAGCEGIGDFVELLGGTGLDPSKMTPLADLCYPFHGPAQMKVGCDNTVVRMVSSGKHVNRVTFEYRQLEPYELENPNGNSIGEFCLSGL

[9] = target: T4, Corticotropin-releasing factor receptor 2/Corticotropin-releasing factor-binding protein; assay: Dose Response confirmation of uHTS hits for small molecule antagonists of the CRF-binding protein and CRF-R2 receptor complex.; assay type: functional; settings: read-out: IC50_Mean
[10] = blockers of CRF-binding protein–CRF-R2 complex – cell-based, uHTS hits, 384-well, dose response (AID 651639); assay type: functional, Homo sapiens; settings: read-out: IC50_Mean
Cytochrome P450 2C9 = Cytochrome P450 2C9 (Homo sapiens, UniProt P11712); settings: Potency
Cytochrome P450 2C9, sequence (P11712 whole entry): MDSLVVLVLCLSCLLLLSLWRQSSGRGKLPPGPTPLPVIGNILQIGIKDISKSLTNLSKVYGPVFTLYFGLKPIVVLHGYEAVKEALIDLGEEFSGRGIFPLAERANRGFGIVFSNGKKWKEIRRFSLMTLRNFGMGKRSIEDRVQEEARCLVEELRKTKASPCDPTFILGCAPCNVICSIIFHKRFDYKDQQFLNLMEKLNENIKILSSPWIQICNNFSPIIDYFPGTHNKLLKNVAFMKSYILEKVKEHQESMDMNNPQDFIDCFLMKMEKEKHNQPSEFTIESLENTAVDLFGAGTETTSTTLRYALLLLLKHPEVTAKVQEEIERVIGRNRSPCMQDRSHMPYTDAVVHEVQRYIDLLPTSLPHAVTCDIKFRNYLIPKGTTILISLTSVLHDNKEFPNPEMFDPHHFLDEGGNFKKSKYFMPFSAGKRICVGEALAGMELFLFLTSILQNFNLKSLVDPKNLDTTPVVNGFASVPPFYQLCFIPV

[11] = target: T5, Ubiquitin-conjugating enzyme E2 N (Homo sapiens, UniProt P61088); assay type: functional
T5 sequence (P61088 whole entry): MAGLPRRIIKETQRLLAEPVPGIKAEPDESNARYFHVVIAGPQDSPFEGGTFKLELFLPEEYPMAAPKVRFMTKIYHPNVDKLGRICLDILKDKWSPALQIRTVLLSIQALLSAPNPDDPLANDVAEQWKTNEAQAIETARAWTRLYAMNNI

Bcl-2-related protein A1 = target: T6, Bcl-2-related protein A1 (Mus musculus, UniProt Q07440); assay type: functional;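 note: confirmatory dose–response counterscreen on Bfl-1, used to check hits from a UBC13 polyubiquitin inhibitor campaign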
T6 sequence (Q07440 whole entry): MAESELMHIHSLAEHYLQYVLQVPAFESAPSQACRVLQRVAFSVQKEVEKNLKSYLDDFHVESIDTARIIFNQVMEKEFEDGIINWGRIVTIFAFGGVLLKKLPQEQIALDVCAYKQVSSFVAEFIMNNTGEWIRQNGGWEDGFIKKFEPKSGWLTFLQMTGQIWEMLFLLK

[12] = target: T5, Ubiquitin-conjugating enzyme E2 N; assay type: functional; remark: listed apart in the source

With `Cc1cc(/C=C2\SC(=S)N(C)C2=O)c(C)n1-c1ccccc1O` as the molecule, how does the EC50 [1] read?
Its EC50 is 8.37 µM (active).

And the EC50 (Streptokinase A)?
Its EC50 is 17.8 µM (active).

What about the EC50 (Troponin, cardiac muscle) of the same molecule?
Its EC50 is 4.96 µM (active).

What about the EC50 (Streptococcus) of the same molecule?
The EC50 was 16.1 µM (active).

Which IC50 [2] does the source give for `COc1cc(Br)c(-c2sc(Nc3ccccc3)n[n+]2-c2ccc(F)cc2)cc1OC` here?
Its IC50 is 11.9 µM (inactive).

Which results are given for `Cc1ccc(/C=C2\SC(=S)N(CCC(=O)NNC(=O)c3cccc(O)c3)C2=O)cc1`?
IC50 [3]: > 50 µM (inactive); IC50 [4]: 16 µM (active)

Which results are given for `O=C(O)c1ccccc1NC(=O)c1ccccc1Nc1ccccc1`?
AC50 [5]: > 100 µM (inactive); AC50 [6]: 9.47 µM (active); IC50 [7]: > 50 µM (active); EC50 [8]: > 53 µM (inactive); IC50 [9]: 5.46 µM (active); IC50 [10]: > 20 µM (inactive)

For `CC(C)C[C@@H](CC(=O)N[C@H](CC(=O)N[C@@H]1CCNC[C@H]1C(=O)N[C@H](CC(=O)N[C@@H](CCC(=O)O)CC(=O)O)Cc1c[nH]c2ccccc12)C(C)C)NC(=O)[C@@H]1CCCC[C@H]1N`, which AC50 (Cytochrome P450 2C9) is on record?
The AC50 was 25.1 µM (inconclusive).

What does the source list for `Cc1[nH]c(=S)c(C#N)c(-c2ccccc2)c1C(=O)Nc1ccccc1`?
IC50 [11]: > 20 µM (inactive); IC50 (Bcl-2-related protein A1): > 20 µM (inactive); IC50 [12]: 13.9 µM (active)

For `CC12CNCC(C)(CN(C(c3ccccc3)c3ccccc3)C1)C2`, which IC50 [2] is on record?
Its IC50 is 5.62 µM (active).
